What was measured:
Format in all cases: cell-based, human
MiaPaCa-2 cells [1] = assay: MTS assay of MiaPaCa2 cultures, single 50 μM dose; settings: MiaPaCa2, 50 μM
Method in brief: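 MiaPaCa-2 pancreatic cancer cells were grown in complete DMEM with 10% fetal bovine serum, 1% penicillin-streptomycin and 1% L-glutamine, kept at 37° C. in a humidified 5% CO2 incubator. They received a single 50 μM dose of test agent or vehicle alongside an untreated control culture, and viability was assessed by MTS assay.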

MiaPaCa-2 cells [2] = assay: MTT assay of MiaPaCa2 cultures, single 50 μM dose; parameters: rel amt (relative value set to the control): unit not given here; settings: MiaPaCa2, 50 μM; for MTT assay result, av-blank: average minus blank; for MTT assay result, av: average of 7 runs
Method in brief: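 MiaPaCa-2 cells given a single 50 μM dose of test agent (tocotrienols, tocopherols, tocopherol succinate, geranylgeraniol or succinic acid) or vehicle (ethanol-extracted olive oil). Viability read by MTT at 48 or 120 hours after treatment, alongside vehicle-only control culture.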

BXPC3 cells = assay: MTT assay of BXPC3 cultures, single 50 μM dose; parameters: MTT assay result, run 1 / MTT assay result, run 2 / MTT assay result, run 3 / MTT assay result, run 4 / MTT assay result, run 5 / MTT assay result, run 6 / MTT assay result, run 7 / MTT assay result, av (average) / MTT assay result, av-blank / MTT assay result, av: unit not given here; settings: BXPC3, 50 μM; for MTT assay result, av-blank: average minus blank
Method in brief: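 BXPC3 cells in 10% FBS medium at 37° C, 5% CO2, given a single 50 μM dose of tocotrienols, tocopherols, tocopherol succinate, geranylgeraniol, succinic acid or vehicle, alongside untreated control. Viability read by MTT at 48 or 120 hours.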

Compound: Cc1c(C)c2c(c(C)c1O)CC[C@@](C)(CCC[C@H](C)CCC[C@H](C)CCCC(C)C)O2 [T alpha, alpha tocopherol]
- rel amt (relative value set to the control) (MiaPaCa-2 cells [1]; 24 hours): 111
- MTS assay result, run 1 (MiaPaCa-2 cells [1]; 24 hours): 0.249
- MTS assay result, run 2 (MiaPaCa-2 cells [1]; 24 hours): 0.25
- MTS assay result, run 3 (MiaPaCa-2 cells [1]; 24 hours): 0.253
- MTS assay result, run 4 (MiaPaCa-2 cells [1]; 24 hours): 0.207
- MTS assay result, run 5 (MiaPaCa-2 cells [1]; 24 hours): 0.253
- MTS assay result, run 6 (MiaPaCa-2 cells [1]; 24 hours): 0.238
- MTS assay result, run 7 (MiaPaCa-2 cells [1]; 24 hours): 0.27
- MTS assay result, run 8 (MiaPaCa-2 cells [1]; 24 hours): 0.254
- MTS assay result, run 9 (MiaPaCa-2 cells [1]; 24 hours): 0.247
- rel amt (relative value set to the control) (MiaPaCa-2 cells [1]; 48 hours): 86
- MTS assay result, run 1 (MiaPaCa-2 cells [1]; 48 hours): 0.308
- MTS assay result, run 2 (MiaPaCa-2 cells [1]; 48 hours): 0.313
- MTS assay result, run 3 (MiaPaCa-2 cells [1]; 48 hours): 0.342
- MTS assay result, run 4 (MiaPaCa-2 cells [1]; 48 hours): 0.269
- MTS assay result, run 5 (MiaPaCa-2 cells [1]; 48 hours): 0.352
- MTS assay result, run 6 (MiaPaCa-2 cells [1]; 48 hours): 0.277
- MTS assay result, run 7 (MiaPaCa-2 cells [1]; 48 hours): 0.305
- MTS assay result, run 8 (MiaPaCa-2 cells [1]; 48 hours): 0.339
- MTS assay result, run 9 (MiaPaCa-2 cells [1]; 48 hours): 0.313
- rel amt (relative value set to the control) (MiaPaCa-2 cells [1]; 72 hours): 103
- MTS assay result, run 1 (MiaPaCa-2 cells [1]; 72 hours): 0.523
- MTS assay result, run 2 (MiaPaCa-2 cells [1]; 72 hours): 0.478
- MTS assay result, run 3 (MiaPaCa-2 cells [1]; 72 hours): 0.464
- MTS assay result, run 4 (MiaPaCa-2 cells [1]; 72 hours): 0.453
- MTS assay result, run 5 (MiaPaCa-2 cells [1]; 72 hours): 0.443
- MTS assay result, run 6 (MiaPaCa-2 cells [1]; 72 hours): 0.456
- MTS assay result, run 7 (MiaPaCa-2 cells [1]; 72 hours): 0.383
- MTS assay result, run 8 (MiaPaCa-2 cells [1]; 72 hours): 0.451
- MTS assay result, run 9 (MiaPaCa-2 cells [1]; 72 hours): 0.456
- rel amt (relative value set to the control) (MiaPaCa-2 cells [2]; 48 hours): 95
- MTT assay result, av-blank (MiaPaCa-2 cells [2]; 48 hours): 0.296
- MTT assay result, av (MiaPaCa-2 cells [2]; 48 hours): 0.342
- MTT assay result, run 1 (MiaPaCa-2 cells [2]; 48 hours): 0.365
- MTT assay result, run 2 (MiaPaCa-2 cells [2]; 48 hours): 0.352
- MTT assay result, run 3 (MiaPaCa-2 cells [2]; 48 hours): 0.339
- MTT assay result, run 4 (MiaPaCa-2 cells [2]; 48 hours): 0.338
- MTT assay result, run 5 (MiaPaCa-2 cells [2]; 48 hours): 0.35
- MTT assay result, run 6 (MiaPaCa-2 cells [2]; 48 hours): 0.297
- MTT assay result, run 7 (MiaPaCa-2 cells [2]; 48 hours): 0.35
- rel amt (relative value set to the control) (MiaPaCa-2 cells [2]; 120 hours (5 days)): 89
- MTT assay result, av-blank (MiaPaCa-2 cells [2]; 120 hours (5 days)): 1.604
- MTT assay result, av (MiaPaCa-2 cells [2]; 120 hours (5 days)): 1.656
- MTT assay result, run 1 (MiaPaCa-2 cells [2]; 120 hours (5 days)): 1.56
- MTT assay result, run 2 (MiaPaCa-2 cells [2]; 120 hours (5 days)): 1.647
- MTT assay result, run 3 (MiaPaCa-2 cells [2]; 120 hours (5 days)): 1.59
- MTT assay result, run 4 (MiaPaCa-2 cells [2]; 120 hours (5 days)): 1.619
- MTT assay result, run 5 (MiaPaCa-2 cells [2]; 120 hours (5 days)): 2.059
- MTT assay result, run 6 (MiaPaCa-2 cells [2]; 120 hours (5 days)): 1.526
- MTT assay result, run 7 (MiaPaCa-2 cells [2]; 120 hours (5 days)): 1.588
- rel amt (relative value set to the control) (BXPC3 cells; 48 hours): 120
- MTT assay result, av-blank (BXPC3 cells; 48 hours): 0.274
- MTT assay result, av (average) (BXPC3 cells; 48 hours, average of 7 runs): 0.323
- MTT assay result, run 1 (BXPC3 cells; 48 hours): 0.333
- MTT assay result, run 2 (BXPC3 cells; 48 hours): 0.328
- MTT assay result, run 3 (BXPC3 cells; 48 hours): 0.352
- MTT assay result, run 4 (BXPC3 cells; 48 hours): 0.296
- MTT assay result, run 5 (BXPC3 cells; 48 hours): 0.3
- MTT assay result, run 6 (BXPC3 cells; 48 hours): 0.341
- MTT assay result, run 7 (BXPC3 cells; 48 hours): 0.312
- rel amt (relative value set to the control) (BXPC3 cells; 120 hours (5 days)): 106
- MTT assay result, av-blank (BXPC3 cells; 120 hours (5 days)): 0.611
- MTT assay result, av (BXPC3 cells; 120 hours (5 days), average of 7 runs): 0.666
- MTT assay result, run 1 (BXPC3 cells; 120 hours (5 days)): 0.657
- MTT assay result, run 2 (BXPC3 cells; 120 hours (5 days)): 0.642
- MTT assay result, run 3 (BXPC3 cells; 120 hours (5 days)): 0.666
- MTT assay result, run 4 (BXPC3 cells; 120 hours (5 days)): 0.659
- MTT assay result, run 5 (BXPC3 cells; 120 hours (5 days)): 0.705
- MTT assay result, run 6 (BXPC3 cells; 120 hours (5 days)): 0.66
- MTT assay result, run 7 (BXPC3 cells; 120 hours (5 days)): 0.672
